Source: patent US6267968A, “MDP derivatives and conjugates having haematipoietic function stimulating activity, and compositions containing same” (Vacsyn S.A., priority 1995, dated 2001)
Entries after “also recorded” stand apart in the source; their conditions may differ.

Tests used:
[1] = system: circulating myelocytes (HSC); test: Mobilization of HSC after combined oral treatment with AZT and Muradimetide (Example 4); type: in vivo, mice; conditions: for effect on the mobilization of HSC (myelocyte count, FIG. 11): MDM 25 mg/kg, AZT 50 mg/kg or mixture, oral, days 0-3 and 7-10 (2 weeks); for No. of circulating myelocytes: p.o., one compound alone at 0 h (AZT 50 mg/Kg or Muradimetide 25 mg/Kg), 24 hours after 4 daily administrations
Experimental: Table 3 below and FIG. 11 show the effect of an oral treatment of mice with Muradimetide before, at the same time as or after AZT administered at 50 mg per kg, on the number of circulating myelocytes tested 24 hours after 4 daily administrations.
The mean number of circulating myelocytes before the treatment lies between 3 and 15×10^4 cells per ml in the 5 groups.
The "P-value" was calculated by the Mann Whitney U Rank test.

[2] = system: normal circulating leukocytes (predominantly neutrophils and lymphocytes) and immature circulating leukocytes (myelocytes); test: Muradimetide administered alone intravenously for 4 consecutive days, circulating cell counts (Example 1); type: in vivo, mice; conditions: for No. of Lymphocytes / No. of Myelocytes / No. of Neutrophils: 25 mg/kg i.v.; for No. of Lymphocytes / No. of Myelocytes / No. of Neutrophils / No. of Leukocytes: 4 consecutive days; for No. of Leukocytes: Muradimetide 25 mg/kg i.v.
Experimental: Table 1 below depicts the leukocyte, neutrophil, lymphocyte and myelocyte counts as a function of the time after treatment with Muradimetide alone administered at a dose of 25 mg/kg. The treatment is performed for 4 consecutive days by intravenous injection.

red cells and platelets = test: 7-day oral treatment with AZT, muradimetide or both, red cell and platelet counts (Example 3); type: in vivo; conditions: p.o. once daily for 7 consecutive days; AZT 100 mg/kg, muradimetide 50 mg/kg or both; counts up to day 10
Experimental: The effect of a 7-day treatment on the number of red cells and of platelets is seen in FIGS. 9 and 10, respectively. The counts are shown as a percentage of those obtained on day 0. Female BALB/c mice (5 per group) are treated once daily for 7 consecutive days with 100 mg/kg of AZT (Δ), 50 mg/kg of muradimetide (.quadrature.) or simultaneously with 100 mg/kg of AZT and 50 mg/kg of muradimetide (.largecircle.). Platelet or red cell counts were done on day 0 and up to 10 days following the beginning of the treatment. No toxicity on the platelets is seen, either with AZT, muradimetide or the mixture of these compounds. The upward trend in their number is apparent between days 4 and 5.

[3] = system: circulating leukocytes, neutrophils and myelocytes; test: Oral Muradimetide with nonmyelotoxic or myelotoxic intravenous doses of AZT, cell counts (Example 8); type: in vivo, female Swiss mice; conditions: Muradimetide 25 mg per kg orally 4 hours before AZT i.v. 5 or 40 mg per kg, days 0-3
Experimental: In this experiment female Swiss mice were injected intravenously with AZT at a dose of 5 or 40 mg per kg on days 0, 1, 2 and 3. On each of the 4 days, and 4 hours before the administration of AZT, groups of mice consisting of 5 individuals received orally either buffer or Muradimetide at a dose of 25 mg per kg.
Cell counts are done on days 0, 1, 2, 3, 4 and 7.
FIG. 3 represents the same experiment in which the myelocytes are counted.

[4] = system: circulating leukocytes, neutrophils and myelocytes; test: Intravenous or oral Muradimetide, cell counts modified by intravenous AZT (Example 2); type: in vivo, male CDI mice
Experimental: Treatment with AZT alone classically induces a decrease in the number of circulating leukocytes and neutrophils. This decrease is followed by a restoration occurring approximately 4 to 7 days after the beginning of the treatment. When Muradimetide has been administered systemically or orally after a treatment with 40 mg/kg of AZT, there is no fall in the number of cells and, on the contrary, there is a multiplication by at least 1.5 of the number of leukocytes and a tripling of the number of neutrophils, this already occurring after 4 days.
Male CDI mice (5 per group) were injected with AZT at a dose of 40 mg per kg on days 0 to 3. Muradimetide is administered on the same days at a dose of 10 mg per kg intravenously or 50 mg per kg orally. Cell counts are done an day 0 (before the treatment) and on days 3 and 4.

[5] = system: circulating HSC (GM-CFU, LPP-CFU, HPP-CFU, CAFC, LTC-IC); test: Mobilization of HSC by stage of differentiation, culture of blood mononuclear cells (Example 7); type: in vivo, Balb/c mice; conditions: AZT 50 mg/kg, MDM 25 mg/kg or mixture once daily for three days; blood 24 hours after last administration
Experimental: In all cases, the culture conditions, especially their duration, were chosen to permit an optimal detection of the different populations in question. For this study, the effect of injecting saline (X--), AZT at 50 mg/kg, MDM at 25 mg/kg and the mixture of the two on the number of circulating HSC were compared. The mononuclear cells after purification were cultured for 5 days in order to count the GM-CFU (for granulocyte-macrophage colony forming units), for 28 days to count the low proliferating potential (LPP) colony forming units and the high proliferating potential (HPP) CFU. The CAFC were counted after 14 days of culture. The LTC-IC after 28 days. The results are presented in FIGS. 14a, 14b, 14c and 14d, respectively. The mice (10 Balb/c per group) received once daily and for three consecutive days either physiological saline, or AZT, or MDM or the mixture of the two under the above dose conditions. Twenty-four hours after the last administration, the blood of all the mice in each group was collected. For the experiments depicted in FIGS. 14a, 14b and 14c, the mononuclear cells were then separated on density gradients and cultured in a semisolid medium for a period of 5 days for the GM-CFU and 28 days for the LPP-CFU. […]

[6] = system: circulating neutrophils, leukocytes, monocytes and myelocytes; test: Comparison of Muradimetide and GM-CSF after intravenous AZT (Example 9); type: in vivo, female Swiss mice; conditions: AZT 40 mg per kg i.v. days 0-3; for HSC in the blood (circulating myelocytes, FIG. 7) / leukocyte and neutrophil counts: Muradimetide 25 mg per kg or mGM-CSF 125 μg per kg i.v. 4 hours before
Experimental: FIGS. 4, 5, 6 and 7 show the effect of a treatment of mice with Muradimetide or with mGM-CSF on the changes in the circulating neutrophils, in the circulating leukocytes or in the circulating monocytes or in the circulating myelocytes, respectively, after an intravenous administration of AZT.
Female Swiss mice were treated intravenously with 40 mg per kg of AZT on days 0, 1, 2 and 3. The groups of mice (5 per group) receive, 4 hours before AZT, either physiological saline, or Muradimetide at 25 mg per kg or mGM-CSF at 125 μg per kg intravenously. Counts are done on days 0, 2, 3, 4 and 8. The asterisks above the histograms indicate that there is a significant difference in the count compared to the values obtained before the treatment on day 0.

circulating myelocytes = test: Comparison of oral Muradimetide with MDPA after intravenous AZT, myelocyte count (Example 10); type: in vivo, female Swiss mice; conditions: AZT 40 mg per kg i.v. days 0-3; MDPA 25 mg per kg 4 hours before AZT
Experimental: In this experiment, female Swiss mice were treated intravenously with 40 mg per kg of AZT on days 0, 1, 2 and 3. Groups of 5 mice received on the same four days, and 4 hours before AZT, either physiological saline, or MDPA at a dose of 25 mg per kg or Muradimetide orally at a dose of 25 mg per kg. Myelocyte counts were carried out on days 0, 2, 3, 4 and 8. The asterisks above the histograms have the same meaning as in the previous diagrams.

[7] = Muradimetide i.v. 10 mg/kg with AZT i.v. 40 mg/kg, day 0 (before the treatment)
[8] = Muradimetide i.v. 10 mg/kg with AZT i.v. 40 mg/kg, day 3
[9] = Muradimetide i.v. 10 mg/kg with AZT i.v. 40 mg/kg, day 4
[10] = Muradimetide p.o. 50 mg/Kg with AZT i.v. 40 mg/kg, day 0 (before the treatment)
[11] = Muradimetide p.o. 50 mg/Kg with AZT i.v. 40 mg/kg, day 3
[12] = Muradimetide p.o. 50 mg/Kg with AZT i.v. 40 mg/kg, day 4
[13] = Muradimetide systemically or orally after treatment with 40 mg/kg of AZT, after 4 days

## Cc1cn([C@H]2C[C@H](N=[N+]=[N-])[C@@H](CO)O2)c(=O)[nH]c1=O [AZT, 3'-azido-3'-deoxythymidine, reference compound]
[1]
  effect on the mobilization of HSC (myelocyte count, FIG. 11): no effect
  No. of circulating myelocytes: 6 ± 8 × 10^4 /ml

## COC(=O)CC[C@@H](NC(=O)[C@H](C)NC(=O)[C@@H](C)O[C@H]1[C@H](O)[C@@H](CO)OC(O)[C@@H]1NC(C)=O)C(=O)OC (stereo partly drawn) [Muradimetide, Nac--Mur--L--Ala--D--Glu--[OCH3]--OCH3]
[2]; day 0
  No. of Lymphocytes: 38 ± 12 × 10^5 /ml
  No. of Myelocytes: 7 ± 6 × 10^4 /ml
  No. of Neutrophils: 11 ± 3 × 10^5 /ml
[2]; day 2
  No. of Lymphocytes: 41 ± 17 × 10^5 /ml
  No. of Myelocytes: 8 ± 8 × 10^4 /ml
  No. of Neutrophils: 10 ± 3 × 10^5 /ml
  No. of Leukocytes: 52 ± 12 × 10^5 /ml
[2]; day 3
  No. of Lymphocytes: 35 ± 13 × 10^5 /ml
  No. of Myelocytes: 40 ± 5 × 10^4 /ml
  No. of Neutrophils: 13 ± 5 × 10^5 /ml
  No. of Leukocytes: 52 ± 17 × 10^5 /ml
[2]; day 4
  No. of Lymphocytes: 34 ± 8 × 10^5 /ml
  No. of Myelocytes: 72 ± 27 × 10^4 /ml
  No. of Neutrophils: 12 ± 4 × 10^5 /ml
  No. of Leukocytes: 52 ± 15 × 10^5 /ml
[2]; day 7
  No. of Lymphocytes: 38 ± 10 × 10^5 /ml
  No. of Myelocytes: 4 ± 4 × 10^4 /ml
  No. of Neutrophils: 12 ± 4 × 10^5 /ml
  No. of Leukocytes: 50 ± 13 × 10^5 /ml
[2]; day of measurement 0
  No. of Leukocytes: 50 ± 14 × 10^5 /ml
[2]; Muradimetide administered alone, days 3 and 4
  increase in the number of circulating myelocytes: highly significant
Red cells and platelets
  toxicity on the platelets: No toxicity
[3]
  time of maximum effect on leukocyte, neutrophil and myelocyte counts (FIGS. 1-3): 4 days
[4]; Muradimetide i.v. 10 mg/kg days 0-3 with AZT i.v. 40 mg/kg, day 0 (before the treatment)
  Leukocytes: 6.0 ± 3.4 × 10^6 /ml
[4]; Muradimetide i.v. 10 mg/kg days 0-3 with AZT i.v. 40 mg/kg, day 3
  Leukocytes: 5.9 ± 2.9 × 10^6 /ml
[4]; Muradimetide i.v. 10 mg/kg days 0-3 with AZT i.v. 40 mg/kg, day 4
  Leukocytes: 7.6 ± 1.6 × 10^6 /ml
[4]; [7]
  Myelocytes: 5 ± 7 × 10^4 /ml
  Neutrophils: 2.0 ± 1.3 × 10^6 /ml
[4]; [8]
  Myelocytes: 145 ± 83 × 10^4 /ml
  Neutrophils: 1.5 ± 0.8 × 10^6 /ml
[4]; [9]
  Myelocytes: 117 ± 46 × 10^4 /ml
  Neutrophils: 4.6 ± 1.5 × 10^6 /ml
[4]; Muradimetide p.o. 50 mg/Kg days 0-3 with AZT i.v. 40 mg/kg, day 0 (before the treatment)
  Leukocytes: 4.8 ± 0.4 × 10^6 /ml
[4]; Muradimetide p.o. 50 mg/Kg days 0-3 with AZT i.v. 40 mg/kg, day 3
  Leukocytes: 6.1 ± 1.4 × 10^6 /ml
[4]; Muradimetide p.o. 50 mg/Kg days 0-3 with AZT i.v. 40 mg/kg, day 4
  Leukocytes: 8.1 ± 2.9 × 10^6 /ml
[4]; [10]
  Myelocytes: 14 ± 13 × 10^4 /ml
  Neutrophils: 1.4 ± 0.5 × 10^6 /ml
[4]; [11]
  Myelocytes: 123 ± 55 × 10^4 /ml
  Neutrophils: 1.6 ± 0.5 × 10^6 /ml
[4]; [12]
  Myelocytes: 138 ± 59 × 10^4 /ml
  Neutrophils: 4.3 ± 2.47 × 10^6 /ml
[4]; [13]
  increase of the number of neutrophils: tripling
  multiplication of the number of leukocytes: at least 1.5
[4]; with AZT 40 mg/kg i.v., irrespective of mode of administration of Muradimetide
  percentage of myelocytes or of promyelocytes: spectacular increase
[1]
  effect on the mobilization of HSC (myelocyte count, FIG. 11): significant effect
  No. of circulating myelocytes: 17 ± 15 × 10^4 /ml
[5]
  effect on the number of circulating HSC (GM-CFU, LPP-CFU, HPP-CFU, CAFC; FIGS. 14a-14d): clearly apparent
[6]
  HSC in the blood (circulating myelocytes, FIG. 7): very strong elevation; also recorded: mobilizes HSC
  leukocyte and neutrophil counts: markedly pronounced effect

## CC(=O)N[C@H]1C(O)O[C@H](CO)[C@@H](O)[C@@H]1O[C@H](C)C(=O)N[C@@H](C)C(=O)N[C@H](CCC(=O)O)C(=O)O (stereo partly drawn) [MDPA, Nac--Mur--L--Ala--D--Glu]
Circulating myelocytes
  antimyelotoxic effect and mobilization of HSC in the blood circulation (myelocyte count, FIG. 8): not occurring

B1: GM-CSF: recombinant mouse GM-CSF, lymphokine customarily used to stimulate myelocytes (protein, UniProt P01587 18-141, looked up)
Granulocyte-macrophage …: APTRSPITVTRPWKHVEAIKEALNLLDDMPVTLNEEVEVVSNEFSFKKLTCVQTRLKIFEQGLRGNFTKLKGALNMTASYYQTYCPPTPETDCETQVTTYADFIDSLKTFLTDIPFECKKPGQK
[6]
  HSC in the blood (circulating myelocytes, FIG. 7): does not do so
  leukocyte and neutrophil counts: do not display an increase
[6]; mGM-CSF 125 μg per kg i.v. 4 hours before
  number of monocytes: increase in the number of monocytes
